These results are taken from patent EP4745138A1, “THIO-GLUTARIMIDO ISOINDOLINONE DERIVATIVE, BIFUNCTIONAL PROTEIN DEGRADER CONTAINING SAME, AND USES THEREOF” (Gluetacs Therapeutics (Shanghai) Co., Ltd., priority 2023, dated 2025).

Assay [1] has as its system MM.1S. The assay can be described thus: Tumor cell proliferation inhibition (CellTiter-Meiluncell Luminescent Cell Viability Assay). Format: cell-based. The note with it: Homo sapiens, MM1.S; for inhibition at 0.01 µM: read-out: Inhibition Rate at 10 nM (%); for inhibition at 0.5 µM: read-out: Inhibition Rate at 500 nM (%). The procedure: (§1) The tumor cells used herein were cultured in a cell culture medium listed in table 3 at 37°C in an incubator with 5% CO2. Prior to experimentation, all cell lines used were correctly identified by STR profiling, and tested negative for mycoplasma contamination using a mycoplasma detection kit through routine screenings. Table 3. Tumor cells and cell culture medium used in the present disclosure
(§2) The IC50 values of the compounds of the present disclosure (including the compounds in Table 1, Table 2, and Examples) were determined using the CellTiter-Meiluncell Luminescent Cell Viability Assay Kit from Dalian Meilun Biotech Co., Ltd. The detailed procedure is as follows: Tumor cells were seeded in 96-well cell culture plates at the densities specified in Table 4. On the following day, the test compounds of the present disclosure were subjected to serial dilution. […] Subsequently, 0.5 µL of the test compound dilution was transferred into the 96-well plate containing the cells, with each well containing 100 µL of cell culture medium. […] Into the 96-well plate, the diluted test compounds and corresponding detection reagents were added, resulting in final test compound concentrations of 500 nM and 10 nM, respectively. The experimental procedure is described below using the diluted 2 µM test compound as an example.
(§3) 0.5 µL of the aforementioned diluted compound of the present disclosure (including the compounds in Table 1, Table 2, and Examples) was added to the seeded cells in 100 µL of medium, yielding a final test compound concentration of 10 nM. After the cells were treated with the compounds of the present disclosure for a specified period, the cell viability assay reagent was added to the culture medium according to the kit's instructions to determine cell viability. […] All controls were treated using the same procedure as the compounds of the present disclosure. […] Seeding protocol and treatment time for tumor cells

Assay [2] relates to MV-4-11. The description is as above. Format: cell-based. The following applies: Homo sapiens, 96 hours; for inhibition at 0.01 µM: MV4-11, 10 nM, read-out: Inhibition Rate at 10 nM (%); for inhibition at 0.5 µM: MV4-11, 500 nM, read-out: Inhibition Rate at 500 nM (%). How it is done: as §1, §2, §3
In assay [3] the test system is MCF-7. Described as above. Format: cell-based. The note with it: Homo sapiens, 96 hours, Table I-2, ALK inhibitors; for inhibition at 0.01 µM: MCF7, 10 nM, read-out: Inhibition Rate at 10 nM (%); for inhibition at 0.5 µM: MCF7, 500 nM, read-out: Inhibition Rate at 500 nM (%). The procedure:
as §1, §2, §3

In assay [4] the target is T1, human Cereblon WT GST-tagged protein (Homo sapiens, UniProt Q96SW2).
T1 construct: purchased CISBIO 64BDCRBNPEH
As to the kind of experiment: CRBN-binding affinity, HTRF (CEREBLON BINDING kit). The following applies: for inhibition at 0.5 µM: read-out: Inhibition Rate at 0.5 µM (%); for inhibition at 2 µM: read-out: Inhibition Rate at 2 µM (%). In outline:
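HTRF competition against a thalidomide-red probe using GST-tagged Cereblon and Eu-labelled anti-GST antibody. Test concentrations (final): 2 µM and 0.5 µM in diluent #9 (1X); blank controls lack compound and protein, containing PROTAC binding buffer.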
Background: TR-FRET usually uses a lanthanide donor and a delayed reading to cut background.

Assay [5] concerns RPMI-8226. As to the kind of experiment: Tumor cell proliferation inhibition (CellTiter-Meiluncell Luminescent Cell Viability Assay). Format: cell-based. The note with it: Homo sapiens, 96 hours; for inhibition at 0.01 µM: 10 nM, read-out: Inhibition Rate at 10 nM (%); for inhibition at 0.5 µM: 500 nM, read-out: Inhibition Rate at 500 nM (%). The procedure:
as §1, §2, §3

In assay [6] the test system is SW620. The description is as above. Format: cell-based. The note with it: Homo sapiens, 96 hours; for inhibition at 0.01 µM: SW-620, 10 nM, read-out: Inhibition Rate at 10 nM (%); for inhibition at 0.5 µM: SW-620, 500 nM, read-out: Inhibition Rate at 500 nM (%). How it is done: as §1, §2, §3
Assay [7] concerns JEKO-1. The assay is described as above. Format: cell-based. The following applies: Homo sapiens, 96 hours, Table I-6, IRAK4 inhibitors. How it is done: as §1, §2, §3
Setting [8] is: MM.1S, 10 nM, 96 hours, Table I-2, ALK inhibitors.
Setting [9] is: MM.1S, 500 nM, 96 hours, Table I-2, ALK inhibitors.
The mark [10] stands for this setting: MM.1S, 10 nM, 96 hours, Table I-11, RSK inhibitors.
[11] abbreviates: MM.1S, 500 nM, 96 hours, Table I-11, RSK inhibitors.

Like-named read-outs stand apart in the source and are kept apart here.

T1 sequence (Q96SW2 whole entry): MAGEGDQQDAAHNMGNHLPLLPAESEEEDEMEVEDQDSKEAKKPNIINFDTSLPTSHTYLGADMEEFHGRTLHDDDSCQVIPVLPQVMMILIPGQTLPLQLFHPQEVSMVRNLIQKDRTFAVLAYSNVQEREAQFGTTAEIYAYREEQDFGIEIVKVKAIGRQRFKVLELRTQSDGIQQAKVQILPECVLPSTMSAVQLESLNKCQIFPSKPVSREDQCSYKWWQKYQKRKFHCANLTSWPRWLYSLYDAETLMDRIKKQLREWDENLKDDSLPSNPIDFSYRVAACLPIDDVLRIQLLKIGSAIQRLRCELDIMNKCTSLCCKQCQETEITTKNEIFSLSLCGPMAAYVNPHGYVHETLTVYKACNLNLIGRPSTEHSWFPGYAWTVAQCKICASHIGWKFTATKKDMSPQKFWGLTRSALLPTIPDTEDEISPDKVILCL

In the case of `Cc1cc(Nc2ncc(Cl)c(Nc3ccccc3S(=O)(=O)C(C)C)n2)c(OC(C)C)cc1C1CCN(Cc2ccc3c(c2)CN(C2CCC(=O)NC2=O)C3=S)CC1` (centres unmarked) [GT-08674, 3-(5-((4-(4-((5-chloro-4-((2-(isopropylsulfonyl)pheny 1)amino)pyrimidin-2-yl)amino)-5-isopropoxy-2-methylphenyl)piperidin-1-yl)methyl)-1-thioxoisoindolin-2-yl)piperidine-2,6-dione], the inhibition at 0.01 µM in assay [1] (setting [8]) was 30 to 40%; in assay [2] (Table I-2, ALK inhibitors) it was 0 to 10%; in assay [3], 30 to 40%. Moreover, the inhibition at 0.5 µM in assay [1] (setting [9]) fell in the range of 80 to 100%; in assay [2] (Table I-2, ALK inhibitors) it was 30 to 40%; in assay [3], 60 to 70%; in assay [4], 40 to 53%. For the same compound, the inhibition at 2 µM in assay [4] fell in the range of 53 to 60%.

As for `COc1cc(N2CCN(Cc3cccc4c3CN(C3CCC(=O)NC3=O)C4=S)CC2)ccc1Nc1ncc(Cl)c(Nc2ccccc2P(C)(C)=O)n1` (centres unmarked) [GT-08677, 3-(4-((4-(4-((5-chloro-4-((2-(dimethylphosphoryl)phenyl)amino)pyrimidin-2-yl)amino)-3-methoxyphenyl)piperazin-1-yl)methyl)-1-thioxoisoindolin-2-yl)piperidine-2,6-dione], the inhibition at 0.01 µM in assay [1] (setting [8]) is 10 to 20%; in assay [2] (Table I-2, ALK inhibitors), 0 to 10%; in assay [3], -5 to 0%. In addition, the inhibition at 0.5 µM in assay [1] (setting [9]) was in the range of 20 to 30%; in assay [2] (Table I-2, ALK inhibitors) it was 60 to 70%; in assay [3], 30 to 40%; in assay [4] it was 53 to 60%. Moreover, the inhibition at 2 µM in assay [4] is 80 to 100%.

Consider `Cc1ccc(C(=O)Nc2ccc(CN3CCN(Cc4cccc5c4CN(C4CCC(=O)NC4=O)C5=S)CC3)c(C(F)(F)F)c2)cc1C#Cc1cnc2cccnn12` (centres unmarked) [GT-08773, N-(4-((4-((2-(2,6-dioxopiperidin-3-yl)-1-thioxoisoindolin-4-yl)methyl)piperazin-1-yl)methyl)-3-(trifluoromethyl)phenyl)-3-(imidazo[1,2-b]pyridazin-3-ylethynyl)-4-methylbenzamide], for which the inhibition at 0.01 µM in assay [1] (MM.1S, 10 nM, 96 hours, Table I-10, BCR-ABL inhibitors) lay in the range of 10 to 20%; in assay [5] (Table I-10, BCR-ABL inhibitors), 5 to 10%; in assay [6] (Table I-10, BCR-ABL inhibitors) it was 0 to 5%; in assay [2] (Table I-10, BCR-ABL inhibitors), 30 to 40%. In addition, the inhibition at 0.5 µM in assay [1] (MM.1S, 500 nM, 96 hours, Table I-10, BCR-ABL inhibitors) fell in the range of 80 to 100%; in assay [5] (Table I-10, BCR-ABL inhibitors), 60 to 70%; in assay [6] (Table I-10, BCR-ABL inhibitors), 70 to 80%; in assay [2] (Table I-10, BCR-ABL inhibitors) it was 80 to 100%; in assay [4], 30 to 40%. For the same compound, the inhibition at 2 µM in assay [4] lay in the range of 60 to 80%.

On to `C[C@@H]1CNC(=O)c2cc3ccc(C(=O)Nc4cnn(Cc5ccc(N6CCN(Cc7ccc8c(c7)CN(C7CCC(=O)NC7=O)C8=S)CC6)cc5)c4)nc3n21` (stereo partly drawn) [GT-08777, (9R)-N-(1-(4-(4-((2-(2,6-dioxopiperidin-3-yl)-1-thioxoisoindolin-5-yl)methyl)piperazin-1-yl)benzyl)-1H-pyrazol-4-yl)-9-methyl-6-oxo-6,7,8,9-tetrahydropyrido[3',2':4,5]pyrrolo[1,2-a]pyrazine-2-carboxamide], for which the inhibition at 0.01 µM in assay [1] (setting [10]) lay within 20 to 30%; in assay [5] (Table I-11, RSK inhibitors), 0 to 5%; in assay [2] (Table I-11, RSK inhibitors), 20 to 30%. Moreover, the inhibition at 0.5 µM in assay [1] (setting [11]) is 50 to 60%; in assay [5] (Table I-11, RSK inhibitors) it was 40 to 50%; in assay [2] (Table I-11, RSK inhibitors) it was 60 to 70%; in assay [4] it was 80 to 100%. Moreover, the inhibition at 2 µM in assay [4] was 60 to 80%.

Turning to `C[C@@H]1CNC(=O)c2cc3ccc(C(=O)Nc4cnn(Cc5ccc(N6CCC(N7CCN(Cc8ccc9c(c8)CN(C8CCC(=O)NC8=O)C9=S)CC7)CC6)cc5)c4)nc3n21` (stereo partly drawn) [GT-08778, (9R)-N-(1-(4-(4-(4-((2-(2,6-dioxopiperidin-3-yl)-1-thioxoisoindolin-5-yl)methyl)piperazin-1-yl)piperidin-1-yl)benzyl)-1H-pyrazol-4-yl)-9-methyl-6-oxo-6,7,8,9-tetrahydropyrido[3',2':4,5]pyrrolo[1,2-a]pyrazine-2-carboxamide], the inhibition at 0.01 µM in assay [1] (setting [10]) lay within 40 to 50%; in assay [5] (Table I-11, RSK inhibitors) it was 10 to 20%; in assay [2] (Table I-11, RSK inhibitors), 50 to 60%. Also, the inhibition at 0.5 µM in assay [1] (setting [11]) fell in the range of 80 to 100%; in assay [5] (Table I-11, RSK inhibitors) it was 50 to 60%; in assay [2] (Table I-11, RSK inhibitors), 80 to 100%; in assay [4], 80 to 100%. In assay [4], the inhibition at 2 µM was in the range of 80 to 100%.

In the case of `CC[C@@H]1[C@H](F)C(=O)N[C@@H]1COc1nccc2cc(C(N)=O)c(OC)cc12` [PF06650833, PF-06650833, reference compound], the inhibition at 0.01 µM in assay [1] (96 h) lay in the range of 0 to 5%; in assay [6] (Table I-6, IRAK4 inhibitors), 10 to 20%; in assay [7] (10 nM, read-out: Inhibition Rate at 10 nM (%)) it was 10 to 20%; in assay [2] (Table I-6, IRAK4 inhibitors), 20 to 30%. Also, the inhibition at 0.5 µM lay in the range of 0 to 5% in assay [1] (96 h); 10 to 20% in assay [6] (Table I-6, IRAK4 inhibitors); 20 to 30% in assay [7] (500 nM, read-out: Inhibition Rate at 500 nM (%)); 20 to 30% in assay [2] (Table I-6, IRAK4 inhibitors).

On to `Cc1ccc(NC(=O)c2ccc(CN3CCN(C)CC3)cc2)cc1Nc1nccc(-c2cccnc2)n1` [imatinib], for which the inhibition at 0.01 µM lay within 5 to 10% in assay [5] (Table I-10, BCR-ABL inhibitors); 5 to 10% in assay [6] (Table I-10, BCR-ABL inhibitors); 0 to 5% in assay [2] (Table I-10, BCR-ABL inhibitors). The inhibition at 0.5 µM lay in the range of 10 to 20% in assay [5] (Table I-10, BCR-ABL inhibitors); 10 to 20% in assay [6] (Table I-10, BCR-ABL inhibitors); 0 to 5% in assay [2] (Table I-10, BCR-ABL inhibitors).

In general, inhibition refers to the change of the read-out against control, counted positive when it falls.
